Tested on: E7 peptide-pulsed EL4 cells
Test: Cytotoxic lymphocyte (4-hour 51Cr-release) assay on spleen cells of immunized mice
Format: in vivo, C57BL/6 mice
Details: C57BL/6 (B6) (H-2b) mice
Protocol: A peptide antigen formulation for use within the present example was prepared in an emulsion by a two-syringe system containing 1:1 incomplete Freund's Adjuvant with 100 μg HPV16 E7 peptide (49-57), 20 μg PCLUS-6.1 helper epitope (see, U.S. Pat. No. 5,939,074; U.S. Pat. No. 5,976,541; U.S. Pat. No. 5,030,449; U.S. Pat. No. 5,081,226; U.S. Pat. No. 5,932,218; U.S. patent application Ser. No. 08/060988, filed May 14, 1993, corresponding to EP 0 710 572 Bi; WO 94/26785; and
U.S. patent application Ser. No. 09/455,076, each incorporated herein by reference), 50,000 U IL-2, 10X PBS and double distilled water. The B7-1 expressing DNA plasmid (400 μg) was prepared in 100 μl water. […]
Procedures to measure CTL activity are well known and are described elsewhere (see, e.g. Chen et al., Cell 71:1093-1102, 1992). […] Supernatants were harvested and counted using a gamma counter. The percentage of specific 51 Cr-release was calculated as follows: 100 X (experimental release−spontaneous release)/(maximum release−spontaneous release). Spontaneous release was determined from target cells incubated without effector cells; maximum release was determined from target cells incubated in the presence of 1% Triton X-100.

Substance: HPV16 E7 peptide(49-57): H2Db binding antigenic peptide of human papilloma virus 16 E7 protein, residues 49-57 (RAHYNIVTF; UniProt P03129 49-57, looked up, fragment)
- Immunogenicity of the peptide (in words): immunogenic

— patent US20020044948A1, “Methods and compositions for co-stimulation of immunological responses to peptide antigens” (priority 2000, published 2002)
